{"source": "patent US5162336A", "about": "“Tetrahydro-pyrido-indoles as cholecystokinin and gastrin antagonists” (Rhone-Poulenc Rorer Pharmaceuticals Inc., priority 1990, dated 1992)", "key": {"[1]": {"system": "CCK-A (peripheral CCK) receptor", "conditions": "second generation proglumide analogues; cited from earlier work"}, "[2]": {"system": "peripherial gastrin and CCK-B (brain) receptors", "conditions": "cited from earlier work"}, "CCK-A receptor": {"molecular_target": "T1, CCK-A receptor (Rattus norvegicus, UniProt P30551)", "T1 construct": "from tissue; host or cells: pancreas membranes of Sprague-Dawley rat", "T1 sequence (P30551 1-444)": "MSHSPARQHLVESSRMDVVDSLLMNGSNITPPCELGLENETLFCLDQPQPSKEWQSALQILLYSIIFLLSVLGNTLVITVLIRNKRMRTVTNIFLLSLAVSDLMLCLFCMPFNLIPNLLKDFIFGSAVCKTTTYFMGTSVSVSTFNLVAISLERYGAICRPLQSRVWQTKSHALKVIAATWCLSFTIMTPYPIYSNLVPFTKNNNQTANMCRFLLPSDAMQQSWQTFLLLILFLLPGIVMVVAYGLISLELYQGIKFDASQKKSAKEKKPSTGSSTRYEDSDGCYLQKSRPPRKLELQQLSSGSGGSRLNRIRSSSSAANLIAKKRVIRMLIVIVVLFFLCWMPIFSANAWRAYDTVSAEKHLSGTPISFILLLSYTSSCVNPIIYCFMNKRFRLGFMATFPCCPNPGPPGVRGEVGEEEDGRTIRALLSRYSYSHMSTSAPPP", "experiment": "CCK-A receptor binding assay (displacement of 3H-L-364,718 from rat pancreas membranes)", "set-up": "species or system Sprague-Dawley rat", "conditions": "3H-L-364,718 0.2 nM, 37° C., 30 min, read-out: In vitro Binding Data IC50 CCK", "procedure": "Washer Buffer (for use with Brandel Cell Harvester):\n30 liters of 50 mM Tris, ph 7.7: Dissolve 181.7 g. Tris base in 4 1. deionized water at room temperature. Adjust pH to 7.7 with 6 N HCl and Q.S. to 30 1.\n50 mM Tris-Cl, 5 mM MgCl2, 5 mM dithio-thretiol, 0.14 mg/ml bacitracin, and 2 mg/ml bovine serum albumin.\n1 liter of 5X stock buffer:\n30.28 g. Tris base per 800 ml D.I. water 5.09 g. MgCl2 6 H2 O, pH to 7.7 at room temperature with 6N HCl and Q.S. 1 liter, store at 4° C.\n250 ml working buffer kept on ice:\n50 ml of 5X stock buffer 0.1928 g. dithiothretiol (5 mM), 35 mg bacitracin (0.14 mg/ml), and 0.5 g. BSA (2mg/ml).\nUnlabeled L-364,718(nonpeptide ligand):\nUnlabeled L-364,718 (300 nM final concentration) is used to define nonspecific binding. A 3 mM solution is made in absolute ethanol and stored in a scintillation vial at -70° C. Aliquots are diluted 100-fold in the assay.\nA Sprague-Dawley rat is sacrificed by asphyxiation with carbon dioxide and the pancreas removed. The tissue is immersed in cold wash buffer and carefully trimmed of fat, connective tissue, blood vessels, blotted and weighed. The tissue is homogenized in a Sorvall SS-34 centrifuge tube in 50 volumes of wash buffer using a Polytron at setting 7 for 15 seconds. The tissue is centrifuged (Sorvall SS-34) at 19,000 rpm for 10 min. The supernatant is poured off and the pellet resuspended in sufficient buffer to obtain a contraction of 40 mg tissue wet weight/ml. Separate aliquots (2,3ml) are placed in each of 8 centrifuge tubes and centrifuged as before. The supernatants are poured off and the pellets stored at -70° C. Stored pellets are sufficient for the assay of 160 tubes and are stable for 1-2 months.\nDuring the assay the stored membranes are resuspended in 40 ml of assay buffer by scraping the pellet off the wall of the centrifuge tube and washing it into a teflon-glass homogenizer. Membranes are resuspended by 5 passes with the teflon pestle and the membranes stored on ice until ready for use.\nPreparation of Compounds:\nCompounds are prepared in DMSO (dimethyl sulfoxide) or in assay buffer. The majority of structures active as CCK antagonists generally require DMSO for complete solubility. Approximately 2-3 mg of compound is weighed directly into a 13×100 mm test tube and sufficient DMSO added to obtain a working stock solution at a concentration 100 fold greater than the highest concentration being tested in the assay. A total of 10 μl of each concentration of drug is added into a final volume of 1 ml to yield a 100 fold dilution of the, working stock solution. Control binding tubes (\"totals and nonspecifics\") are also treated with 10 μl DMSO.\n^3 H-L-364,718 is obtained from New England Nuclear (Cat. #971) and is used as supplied. The final assay concentration of ^3 H-L-364,718 in assay buffer should be 0.2 nM in a final assay volume of 1 ml. ^3 H-L-364,718 (0.2 pmol) is added into the assay in a volume of 25 μl (8 nM working stock solution). The required dilution (usually>1000 fold) is obtained by dividing the working stock concentration into the concentration of the specific lot.\nSamples are prepared in triplicate and a \"total\" (buffer addition) and \"nonspecific\" (300 nM unlabeled L-364,718) set of tubes included in each set of 24 tubes. The remaining 6 sets of triplicates are used either for screening or IC50 determinations. The order of addition is drugs-DMSO, buffer, unlabeled L-364,718, ^3 H-L-364,718, and to start the assay, membranes.\nWhile tubes are incubating a shaking water bath at 37° C. for 30 min Brandel deposit/dispense filters are presoaked in wash buffer. Following the end of the incubation, sets of 24 tubes are rapidly washed with assay buffer as follows. Assay buffer is added to the incubation tubes to the height of the uppermost cross support in the standard Brandel test tube rack and the contents immediately aspirated. This process is repeated twice more, the filter removed, marked and the next set of 24 tubes processed. […]"}, "Gastrin receptor [3]": {"molecular_target": "T2, Gastrin receptor (Cavia porcellus, UniProt H0VZC5)", "T2 construct": "The fundic mucosa is gently scraped off the submucosa; from tissue; host or cells: gastric glands from fundic mucosa of Hartley guinea pig", "T2 sequence (H0VZC5 1-426)": "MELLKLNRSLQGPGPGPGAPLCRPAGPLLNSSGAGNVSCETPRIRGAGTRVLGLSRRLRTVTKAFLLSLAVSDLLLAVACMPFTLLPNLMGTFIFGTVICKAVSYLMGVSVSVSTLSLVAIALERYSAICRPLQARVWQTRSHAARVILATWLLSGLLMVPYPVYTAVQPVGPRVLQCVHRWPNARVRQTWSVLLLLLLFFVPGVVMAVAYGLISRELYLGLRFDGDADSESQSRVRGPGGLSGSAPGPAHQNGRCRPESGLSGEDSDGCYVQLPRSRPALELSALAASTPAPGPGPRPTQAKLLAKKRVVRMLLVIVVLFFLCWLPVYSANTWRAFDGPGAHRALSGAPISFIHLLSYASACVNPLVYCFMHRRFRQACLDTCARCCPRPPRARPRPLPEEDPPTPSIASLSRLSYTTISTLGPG", "experiment": "Gastrin receptor binding assay (displacement of 125I-(Leu-15)-Gastrin from guinea pig fundic glands)", "set-up": "species or system guinea pig (Hartley Strain)", "conditions": "guinea pig fundic mucosa glands, 25° C., 30 min, read-out: In vitro Binding Data IC50 Gastrin", "procedure": "(a) Phosphate Buffered Saline (PBS): 8.743 g NaCl, 523 mg K2 HPO4 and 76.8 mg NaH2 PO4 is dissolved in 1.0 liter of deionized water and the pH of the solution is adjusted to 7.3 with 5N NaOH.\n(b) Buffer A: While adding Basal Medium Eagle (BME) containing Earle's Salts, L-glutamine and 25 mM HEPES, 3 liters of deionized water is stirred, followed by the addition and dissolution of […] of sodium bicarbonate. The solution is then equilibrated with 95% O2 /5% CO2 gas followed by titration to a pH of 7.4 with NaOH.\n(c) Buffer B: 18.75 mg of collagenase and […] of BSA is dissolved in 25 ml of Buffer A.\n(d) Buffer C: 0.3 g of BSA is dissolved in 300 ml of Buffer A.\n(e) 6.25 mg Bacitracin is dissolved in 25 ml of Buffer A.\n(f) ^125 I-(Leu-15)-Gastrin: 100 microcurie dissolved in 2.0 ml of Buffer A to make 50 microcurie/ml.\n(g) ^125 I-(15-methionine)-Human Gastrin: 50 microcurie/ml.\n(h) (Leu 15)-Gastrin: 5.2 mg of (Leu-15)- Gastrin is dissolved in 10 ml of Buffer A. At the time of assay 1:10 dilution is made and 10 μl assay tube is used.\nA guinea pig (Hartley Strain) weighing 150-200 grams, is sacrificed by CO2 asphyxiation and the stomach immediately excised, cut along the greater curvature, cleaned out and immediately immersed in a beaker containing cold PBS, pH 7.3, to insure thorough cleaning. The fundic mucosa is gently scraped off the submucosa and added to a preweighed 50 ml plastic centrifuge tube containing 30 ml of cold Buffer A. The weight of the plastic centrifuge tube containing the buffer is then subtracted from the combined weight of the mucosa and the buffer-containing tube to give the weight of the mucosa. The weight of the mucosa thus determined is recorded for later calculations.\nThe mucosa is then washed twice in Buffer A. After the final wash, the tissue is minced and is placed in a 100-ml glass beaker containing about 1.0 ml of Buffer A, and washed twice again by repeated centrifugation at 50×g for 5 minutes each and aspiration of supernatant. The washed tissue fragments are then added to a glass Erlenmeyer flask containing 25 ml of Buffer B and incubated in a Dubnoff shaking water bath at 37° C. for 30 minutes in a 95% O2 - 5% CO2 atmosphere. After the incubation, the digested tissue fragments in the Collegenase-buffer solution are triturated, filtered through a 200-micron nylon mesh and centrifuged at 50×g for 5 minutes. The supernatant is aspirated and discarded, the tissue washed 2× in Buffer C, resuspended in same buffer, incubated in a 37° C. water bath in an atmosphere of 95% O2 - 5% CO2 for 5 minutes, and centrifuged. The pelleted glands are suspended in Buffer D at a desired concentration of 2x10^5 glands/ml to use in the receptor binding assay.\nSix minisorp tubes (16×100 mm) are serially marked and divided into two groups thus: tubes #1, #2, and #3 are marked \"T\" for \"Totals\" and tubes #4, #5, and #6 are marked \"NS\" for \"Non-Specifics.\" Into each of the six tubes are added 220 μl of prepared glands in Buffer D; 20 μl of Buffer A in tubes #1, #2, and #3; 10 μl, in tubes #4, #5 and #6; (10μ of (Leu-15)-Gastrin (25 μM) in tubes #4, #5, and #6. The six tubes are then transferred immediately to a 25° C. water bath and challenged each with 10 μl ^125 I-(Leu-15)-Gastrin diluted as per calculation. The tubes are then covered with a gas hood connected to a 95% O2 - 5% CO2 gas source and mechanically agitated in a shaker for 30 minutes.\nAt the end of the incubation period, the assay mixtures are each filtered through a Whatman glass fiber filter B on a Brandel tissue harvester and washed twice with Buffer A. The filters are pre-soaked in Buffer C before use. The filter strips are removed after the final wash and individual filters counted in a Gamma Counter. The counts from the \"Non-Specific\" tubes are then averaged and subtracted from the average \"Totals\" to give the Specific Counts. […]"}, "gastrin receptor [4]": {"system": "gastrin receptor", "conditions": "cited from earlier work"}, "gastrin": {"system": "gastrin", "conditions": "rat (in vivo); cited from earlier work"}, "gastrin receptor [5]": {"system": "gastrin receptor", "conditions": "cited from earlier work", "remark": "listed apart in the source"}}, "data": [{"molecule": "CCCCCN(CCCOC)C(=O)C(CCC(=O)O)NC(=O)c1ccc(Cl)c(Cl)c1", "note": "(centres unmarked) [Loxiglumide]", "values": [{"measurement": "receptor affinity and selectivity", "setting": "[1]", "result": "considerably better receptor affinity and selectivity"}]}, {"molecule": "Cc1cccc(NC(=O)N[C@@H]2N=C(c3ccccc3)c3ccccc3N(C)C2=O)c1", "note": "[L-365,260]", "values": [{"measurement": "selectivity for peripheral gastrin and CCK-B (brain) receptors", "setting": "[2]", "result": "selective for the peripherial gastrin and CCK-B (brain) receptors"}]}, {"molecule": "NC(=O)[C@H](CC(=O)OCc1ccccc1)NC(=O)[C@H]1Cc2c([nH]c3ccccc23)CN1C(=O)c1ccccc1", "note": "[Example 7, N-[(3R)-2-benzoyl-1,2,3,4-tetrahydro-9H-pyrido[3,4-b]indole-3-carboxyl]-L-aspartic acid amide β-benzyl ester]", "values": [{"measurement": "IC50", "setting": "CCK-A receptor", "result": 25, "unit": "µM"}]}, {"molecule": "NC(=O)[C@H](CC(=O)O)NC(=O)[C@@H]1CCCN1C(=O)[C@H]1Cc2c([nH]c3ccccc23)CN1C(=O)Nc1ccc(Cl)c(Cl)c1", "note": "[Example 25]", "values": [{"measurement": "IC50", "setting": "Gastrin receptor [3]", "result": 0.23, "unit": "µM"}]}, {"molecule": "Boc-Trp-Leu-gAsp-m(R,S)Phe-NH2", "values": [{"measurement": "binding to the gastrin receptor", "setting": "gastrin receptor [4]; analogues of CCK-4 with partial retroinverso modifications", "result": "bind strongly"}, {"measurement": "block the effects of gastrin", "setting": "gastrin", "result": "block the effects of gastrin"}]}, {"molecule": "Boc-Trp-Leu-.PSI.(CH2 NH)-Asp-Phe-NH2", "values": [{"measurement": "binding affinity", "setting": "gastrin receptor [4]; compared with Boc-Trp-Leu-Asp-Phe-NH2", "result": "same binding affinity as Boc-Trp-Leu-Asp-Phe-NH2"}, {"measurement": "agonist activity", "setting": "gastrin receptor [5]", "result": "no agonist activity"}]}, {"molecule": "CCCCCN(CCCCC)C(=O)C(CCC(=O)O)NC(=O)c1ccc(Cl)c(Cl)c1", "note": "(centres unmarked) [Lorglumide]", "values": [{"measurement": "receptor affinity and selectivity", "setting": "[1]", "result": "considerably better receptor affinity and selectivity"}]}, {"molecule": "COc1ccc(NC(=O)N2Cc3[nH]c4ccccc4c3C[C@@H]2C(=O)Nc2ccccc2C(=O)N2CCCC2)cc1", "note": "[Example 21, pyrrolidine-2-N-[(3R)-2-(4-methoxyphenylcarbamoyl)-1,2,3,4-tetrahydro-9H-pyrido[3,4-b]indole-3-carboxyl]aminobenzamide]", "values": [{"measurement": "IC50", "setting": "Gastrin receptor [3]", "result": 90, "unit": "µM"}]}, {"molecule": "CC(C)C[C@@H](NC(=O)[C@@H]1Cc2c([nH]c3ccccc23)CN1C(=O)Nc1ccc(Cl)c(Cl)c1)C(=O)N[C@H](CC(=O)O)C(N)=O", "note": "[Example 71]", "values": [{"measurement": "IC50", "setting": "Gastrin receptor [3]", "result": 4, "unit": "µM"}]}]}
